Results on four molecules are retold here after ChEMBL document CHEMBL1201862, “PubChem BioAssay data set” (2004).

A word on the EC50: it is the concentration needed to bring the measured effect to its halfway point. The AC50 is the concentration giving half of the maximal activity seen. As usually defined, the IC50 is the concentration that gives 50% inhibition.

Calls of active or inactive are those of the source. Bounds are passed on as bounds.

Assay [1] deals with T1, Alkaline phosphatase, tissue-nonspecific isozyme (Homo sapiens, UniProt P05186).
T1 sequence (P05186 whole entry): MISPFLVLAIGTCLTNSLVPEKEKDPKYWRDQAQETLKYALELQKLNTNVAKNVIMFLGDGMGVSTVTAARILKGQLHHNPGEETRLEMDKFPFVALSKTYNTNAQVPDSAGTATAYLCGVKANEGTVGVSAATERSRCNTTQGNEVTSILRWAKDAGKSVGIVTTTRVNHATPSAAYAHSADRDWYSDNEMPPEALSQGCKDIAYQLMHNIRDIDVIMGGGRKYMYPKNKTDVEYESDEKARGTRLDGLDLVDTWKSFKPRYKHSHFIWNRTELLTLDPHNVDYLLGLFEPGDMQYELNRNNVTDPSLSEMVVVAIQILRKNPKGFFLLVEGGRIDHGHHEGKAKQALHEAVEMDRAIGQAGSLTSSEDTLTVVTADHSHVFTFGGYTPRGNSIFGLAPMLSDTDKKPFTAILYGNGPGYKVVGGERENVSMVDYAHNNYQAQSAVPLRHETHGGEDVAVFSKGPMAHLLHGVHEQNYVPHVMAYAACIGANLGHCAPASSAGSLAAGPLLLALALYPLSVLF

The target of the next assay is Cytochrome P450 3A4 (Homo sapiens, UniProt P08684).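 Further: CYP3A4 tested as one member of a cytochrome P450 panel screen.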
Another assay concerns the target T2, Cytochrome P450 1A2 (Homo sapiens, UniProt P05177).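 Further: PubChem cytochrome P450 panel assay, CYP1A2 panel member.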
T2 sequence (P05177 whole entry): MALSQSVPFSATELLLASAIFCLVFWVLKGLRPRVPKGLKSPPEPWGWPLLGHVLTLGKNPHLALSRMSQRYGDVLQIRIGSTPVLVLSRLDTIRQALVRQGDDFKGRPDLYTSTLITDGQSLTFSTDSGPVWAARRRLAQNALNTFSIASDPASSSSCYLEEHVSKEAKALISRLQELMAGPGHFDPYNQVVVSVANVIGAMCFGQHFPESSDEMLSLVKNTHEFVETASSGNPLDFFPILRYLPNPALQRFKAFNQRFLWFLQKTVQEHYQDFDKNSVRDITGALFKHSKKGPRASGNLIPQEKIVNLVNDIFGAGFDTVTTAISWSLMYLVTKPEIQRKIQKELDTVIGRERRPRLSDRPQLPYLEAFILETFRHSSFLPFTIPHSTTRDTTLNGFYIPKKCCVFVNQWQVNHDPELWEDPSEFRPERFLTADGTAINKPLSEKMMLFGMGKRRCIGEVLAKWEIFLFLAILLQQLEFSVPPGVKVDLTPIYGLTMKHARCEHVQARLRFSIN

Assay [2] concerns the target Endoplasmic reticulum aminopeptidase 1 (Homo sapiens, UniProt Q9NZ08). The experiment in a line: inhibition of human ERAP1 enzyme activity – biochemical, cherry-pick, set 2, plate reader, dose response (AID 743314).
For assay [3], the target named is T3, Mannose-6-phosphate isomerase (Homo sapiens, UniProt P34949).
T3 sequence (P34949 whole entry): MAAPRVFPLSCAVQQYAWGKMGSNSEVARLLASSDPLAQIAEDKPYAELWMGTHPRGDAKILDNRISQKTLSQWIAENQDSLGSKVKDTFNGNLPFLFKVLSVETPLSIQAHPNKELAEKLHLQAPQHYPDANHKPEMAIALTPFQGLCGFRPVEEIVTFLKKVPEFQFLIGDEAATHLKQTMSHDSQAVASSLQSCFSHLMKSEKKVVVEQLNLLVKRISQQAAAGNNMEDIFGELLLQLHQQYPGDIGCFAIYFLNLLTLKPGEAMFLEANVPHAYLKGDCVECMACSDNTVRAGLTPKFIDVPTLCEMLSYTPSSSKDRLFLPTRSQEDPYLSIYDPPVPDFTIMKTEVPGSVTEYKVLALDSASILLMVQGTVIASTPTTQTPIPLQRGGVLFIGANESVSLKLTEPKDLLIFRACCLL
The experiment in a line: MPI enzyme activity inhibition – biochemical, fluorescence intensity, coupled assay, primary screen (AID 1209).

A further assay concerns the target Large T antigen (Simian virus 40, UniProt P03070). The format is functional, Betapolyomavirus macacae.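 Further: Confirmatory-stage PubChem screen for compounds that inhibit SV40 T antigen.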
The target in assay [4] is T3, Mannose-6-phosphate isomerase. The experiment in a line: MPI inhibition at elevated mannose 6-phosphate – biochemical, fluorescence intensity, high mannose 6-phosphate, primary screen (AID 1220).
Another assay deals with Streptococcus. The experiment in a line: GAS UMAA2166 growth inhibition – luminescence, BacTiterGlo, counter-screen for streptokinase expression inhibitor project, dose response (AID 1915).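 Further: potency for reduction of bacterial viability or growth.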 It counts as functional, organism-based. On the technique in general: The purpose of a counterscreen is to sort out artefacts and off-target activity.
Assay [5] concerns Streptococcus sp. 'group A'. The experiment in a line: Streptococcus pyogenes SK(-)GAS viability under kanamycin – luminescence, BacTiterGlo, confirmation, counter-screen for streptokinase expression inhibitor project, dose response (AID 1900). It counts as functional, organism-based.
A further assay deals with T4, Streptokinase A (Streptococcus pyogenes serotype M1, UniProt P10520).
T4 sequence (P10520 whole entry): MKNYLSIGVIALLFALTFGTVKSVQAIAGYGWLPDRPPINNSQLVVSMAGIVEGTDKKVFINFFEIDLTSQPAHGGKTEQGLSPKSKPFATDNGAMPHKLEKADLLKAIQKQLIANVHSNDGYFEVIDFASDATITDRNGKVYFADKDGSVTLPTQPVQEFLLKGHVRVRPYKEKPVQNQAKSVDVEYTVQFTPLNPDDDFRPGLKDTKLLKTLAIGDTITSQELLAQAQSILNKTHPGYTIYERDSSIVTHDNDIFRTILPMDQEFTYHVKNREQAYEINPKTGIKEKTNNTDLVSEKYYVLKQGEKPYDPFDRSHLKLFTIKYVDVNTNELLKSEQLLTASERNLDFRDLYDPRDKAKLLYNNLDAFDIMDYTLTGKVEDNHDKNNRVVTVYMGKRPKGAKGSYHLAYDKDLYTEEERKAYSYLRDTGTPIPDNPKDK
The experiment in a line: viability-normalized secreted streptokinase activity reduction – plasminogen activation absorbance, OD405, dose response (AID 1914).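 Further: secreted streptokinase activity via plasminogen activation per viability signal from cell pellet.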 It counts as functional, Streptococcus pyogenes M1 GAS.

Assay [6] in a line: CCR5-tropic HIV-1 fusion blockers – cell-based, CCR5-tropic Env, dose response (AID 2279). The format is functional.
In assay [7] the target is T5, Microphthalmia-associated transcription factor (Homo sapiens, UniProt O75030).
T5 sequence (O75030 whole entry): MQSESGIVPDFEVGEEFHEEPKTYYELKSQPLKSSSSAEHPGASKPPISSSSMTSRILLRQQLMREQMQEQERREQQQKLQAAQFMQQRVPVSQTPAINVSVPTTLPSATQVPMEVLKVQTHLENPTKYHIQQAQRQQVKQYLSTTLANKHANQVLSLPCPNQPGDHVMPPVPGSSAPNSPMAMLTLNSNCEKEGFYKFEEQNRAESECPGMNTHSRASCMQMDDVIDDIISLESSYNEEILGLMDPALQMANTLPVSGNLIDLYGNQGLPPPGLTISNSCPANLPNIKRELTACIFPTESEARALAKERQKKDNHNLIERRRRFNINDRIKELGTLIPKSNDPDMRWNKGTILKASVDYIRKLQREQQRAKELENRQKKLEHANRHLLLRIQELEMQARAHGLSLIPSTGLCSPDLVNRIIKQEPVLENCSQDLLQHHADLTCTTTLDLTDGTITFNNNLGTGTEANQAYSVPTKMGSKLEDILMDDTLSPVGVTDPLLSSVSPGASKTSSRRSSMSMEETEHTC
The experiment in a line: reducers of TRPM1 reporter luminescence, concentration series – cell-based, SK-MEL-5, cherry-picked, set 3, MITF inhibitor project, dose response (AID 493073).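 Further: SK-MEL-5 melanoma cells with luciferase driven by the MITF target TRPM1 promoter.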 It counts as functional.

Assay [8] deals with Luciferin 4-monooxygenase (Photinus pyralis, UniProt P08659). The experiment in a line: Counter Screen for Luciferase-based Assay Positives. [Related pubchem assays: 620, 618, 411 ].
The test system of assay [9] is BJ. The experiment in a line: BJ-TERT fibroblast viability loss – cell-based, RAS-independent, luminescence, dose response (AID 1933). The format is functional. As to conditions: Homo sapiens.
A short description of assay [10]: viability loss in HEK293 cells – cell-based, plate reader, cherry-picked samples, cytotoxicity control, dose response (AID 743446). It counts as functional.
The test system of assay [11] is BJ. The experiment in a line: cells. The settings on record: Homo sapiens. The format is functional, cell-based.
The next assay deals with A-375. The experiment in a line: MITF: Counter assay: A375 proliferation Measured in Cell-Based System Using Plate Reader - 2084-03_Inhibitor_Dose_DryPowder_Activity. [Related pubchem assays (depositor defined):AID488944]. It counts as functional. The settings on record: Homo sapiens.
Assay [12] can be described thus: luciferase reporter signal reduction – luminescence, H4-C neuroglioblastoma cells, dose response (AID 2458).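 Further: H4 neuroglioblastoma cells stably carrying a luciferase reporter gene fusion.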 The format is functional, cell-based. A general note: A reporter such as luciferase makes a cellular process visible.
A short description of assay [13]: alpha-synuclein stem-loop translation blockers – luminescence, H4 neuroglioblastoma cells, dose confirmation, confirmation (AID 2454).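 Further: H4 neuroglioblastoma cells carrying an alpha-synuclein 5'UTR luciferase reporter; potency for inhibition of the luciferase signal.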 The format is functional, cell-based.
Assay [14] in a line: luciferase reporter signal suppression in cells – H4 neuroglioma cells, luminescence, dose response (AID 1990). The format is functional, cell-based.
The next assay has as its system HT-1080. The experiment in a line: HT1080 cell viability loss – fluorescence readout (AID 620). It counts as functional, cell-based. As to conditions: Homo sapiens.
A short description of assay [15]: Luminescence Cell-Based Dose Response HTS to Identify Inhibitors of 5'UTR Stem-Loop Driven Prion Protein mRNA Translation in H4 Neuroglioblastoma Cells. [Related pubchem assays: 1827 (Project Summary), 1813 (Primary HTS)]. The format is functional.
Assay [16] in a line: DRD fibroblast viability loss – cell-based, non-viral oncogenic, luminescence, dose response (AID 1934). The settings on record: Homo sapiens. It counts as functional.
The nature of assay [17]: blockade of melanocortin 4 receptor signaling – cell-based, plate reader, cherry pick, counter-screen for LGR2 antagonist project, dose response (AID 743444).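 Further: transfected HEK 293 cells stimulated with alpha-MSH peptide; potency of inhibitors of the alpha-MSH evoked signal.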 It counts as functional.
The nature of assay [18]: A549 cell cytotoxicity, dose response, cytotoxicity control, plate reader, cherry-pick, antagonist series (AID 743412). It counts as functional, cell-based.
Another assay in a line: cells. It counts as functional, cell-based.
Assay [19] relates to BJ. The experiment in a line: BJ-TERT-LT-ST fibroblast viability loss – cell-based, RAS-independent, luminescence, dose response (AID 1935).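 Further: BJ fibroblasts immortalized with TERT plus LT and ST oncogenes.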 It counts as functional. The settings on record: Homo sapiens.
Assay [20] has as its target Glyceraldehyde-3-phosphate dehydrogenase (Homo sapiens, UniProt P04406).
Assay [21] can be described thus: blockers of bursicon-stimulated LGR2 cAMP reporter – cell-based, HEK293, CRE-luciferase reporter, cherry pick, set 2, dose response (AID 743343).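 Further: transfected cells were stimulated with diluted bursicon conditioned medium after compound addition.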 The format is functional.
The nature of assay [22]: Luminescence-based counterscreen assay for KLF5 inhibitors: dose response cell-based high throughput screening assay to identify cytotoxic compounds using the IEC-6 intestinal epithelial cell line. [Related pubchem assays: 1700 (Primary screen.), 1834 (Confirmation screen.), 1858 (Summary AID.), 1905 (Counterscreen.)]. The format is functional.
Assay [23] is described as follows: alpha-synuclein stem-loop luciferase translation blockers – H4 neuroglioma cells, luminescence, confirmation (AID 1988). It counts as functional, cell-based.
Assay [24] relates to BJ. The experiment in a line: growth inhibition of engineered Ras-driven BJ cells – cell-based, alamar blue fluorescence, cherrypicked samples, dose response (AID 2631).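 Further: confirmatory dose-response assay in RAS-dependent BJ fibroblasts engineered with TERT, LT and ST, with cytotoxicity read by fluorescence.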 The format is functional. The settings on record: Homo sapiens. For orientation: Resazurin is reduced to fluorescent resorufin, in cell work by metabolically active cells.
Assay [25] in a line: toxicity toward HepG2 liver cells – cell-based, plate reader, cherry-pick, antagonist series, cytotoxicity control, dose response (AID 743416). The format is functional.

Sequence of Glyceraldehyde-3-phosphate dehydrogenase (P04406 whole entry): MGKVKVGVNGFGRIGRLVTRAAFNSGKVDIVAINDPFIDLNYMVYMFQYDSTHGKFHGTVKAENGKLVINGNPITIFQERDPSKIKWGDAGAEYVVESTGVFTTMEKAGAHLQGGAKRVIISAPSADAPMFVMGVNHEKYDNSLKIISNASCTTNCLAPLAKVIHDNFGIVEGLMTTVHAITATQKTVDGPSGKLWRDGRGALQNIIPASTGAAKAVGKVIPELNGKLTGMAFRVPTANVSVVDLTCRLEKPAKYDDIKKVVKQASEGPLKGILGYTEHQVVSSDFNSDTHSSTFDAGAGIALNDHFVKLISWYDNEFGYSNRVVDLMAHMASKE
Sequence of Large T antigen (P03070 whole entry): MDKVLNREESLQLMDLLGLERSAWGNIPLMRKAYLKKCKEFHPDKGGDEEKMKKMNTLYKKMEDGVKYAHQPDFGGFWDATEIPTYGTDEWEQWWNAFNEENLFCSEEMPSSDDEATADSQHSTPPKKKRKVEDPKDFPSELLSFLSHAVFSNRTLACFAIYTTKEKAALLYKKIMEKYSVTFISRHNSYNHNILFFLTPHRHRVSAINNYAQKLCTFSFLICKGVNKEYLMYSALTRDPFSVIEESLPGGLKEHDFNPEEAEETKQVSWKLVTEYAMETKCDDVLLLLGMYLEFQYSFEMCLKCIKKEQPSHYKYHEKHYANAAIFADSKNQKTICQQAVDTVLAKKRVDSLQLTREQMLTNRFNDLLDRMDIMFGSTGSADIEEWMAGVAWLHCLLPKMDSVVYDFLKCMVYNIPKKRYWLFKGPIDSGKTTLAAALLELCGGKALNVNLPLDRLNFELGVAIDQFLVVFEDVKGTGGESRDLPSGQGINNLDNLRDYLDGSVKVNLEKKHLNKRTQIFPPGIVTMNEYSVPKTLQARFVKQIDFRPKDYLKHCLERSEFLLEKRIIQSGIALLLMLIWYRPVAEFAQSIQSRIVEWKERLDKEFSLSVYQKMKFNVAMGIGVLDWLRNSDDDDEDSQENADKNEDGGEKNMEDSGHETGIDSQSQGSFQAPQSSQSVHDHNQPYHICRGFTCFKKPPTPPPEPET
Sequence of Luciferin 4-monooxygenase (P08659 whole entry): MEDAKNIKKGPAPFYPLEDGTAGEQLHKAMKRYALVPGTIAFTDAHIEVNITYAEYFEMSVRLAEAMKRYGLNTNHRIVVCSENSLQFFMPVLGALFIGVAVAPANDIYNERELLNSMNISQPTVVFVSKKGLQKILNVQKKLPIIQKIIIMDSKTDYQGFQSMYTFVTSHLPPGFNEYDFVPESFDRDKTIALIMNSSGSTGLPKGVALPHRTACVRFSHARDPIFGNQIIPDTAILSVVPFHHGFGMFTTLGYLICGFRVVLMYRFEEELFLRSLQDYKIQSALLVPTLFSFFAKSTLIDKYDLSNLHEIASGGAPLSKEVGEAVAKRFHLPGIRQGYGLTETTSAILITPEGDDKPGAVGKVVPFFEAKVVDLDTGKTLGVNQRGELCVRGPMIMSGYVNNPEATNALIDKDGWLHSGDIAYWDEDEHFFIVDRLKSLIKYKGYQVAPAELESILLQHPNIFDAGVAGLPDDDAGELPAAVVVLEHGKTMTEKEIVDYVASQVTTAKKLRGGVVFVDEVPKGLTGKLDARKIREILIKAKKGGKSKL
Sequence of Endoplasmic reticulum aminopeptidase 1 (Q9NZ08 whole entry): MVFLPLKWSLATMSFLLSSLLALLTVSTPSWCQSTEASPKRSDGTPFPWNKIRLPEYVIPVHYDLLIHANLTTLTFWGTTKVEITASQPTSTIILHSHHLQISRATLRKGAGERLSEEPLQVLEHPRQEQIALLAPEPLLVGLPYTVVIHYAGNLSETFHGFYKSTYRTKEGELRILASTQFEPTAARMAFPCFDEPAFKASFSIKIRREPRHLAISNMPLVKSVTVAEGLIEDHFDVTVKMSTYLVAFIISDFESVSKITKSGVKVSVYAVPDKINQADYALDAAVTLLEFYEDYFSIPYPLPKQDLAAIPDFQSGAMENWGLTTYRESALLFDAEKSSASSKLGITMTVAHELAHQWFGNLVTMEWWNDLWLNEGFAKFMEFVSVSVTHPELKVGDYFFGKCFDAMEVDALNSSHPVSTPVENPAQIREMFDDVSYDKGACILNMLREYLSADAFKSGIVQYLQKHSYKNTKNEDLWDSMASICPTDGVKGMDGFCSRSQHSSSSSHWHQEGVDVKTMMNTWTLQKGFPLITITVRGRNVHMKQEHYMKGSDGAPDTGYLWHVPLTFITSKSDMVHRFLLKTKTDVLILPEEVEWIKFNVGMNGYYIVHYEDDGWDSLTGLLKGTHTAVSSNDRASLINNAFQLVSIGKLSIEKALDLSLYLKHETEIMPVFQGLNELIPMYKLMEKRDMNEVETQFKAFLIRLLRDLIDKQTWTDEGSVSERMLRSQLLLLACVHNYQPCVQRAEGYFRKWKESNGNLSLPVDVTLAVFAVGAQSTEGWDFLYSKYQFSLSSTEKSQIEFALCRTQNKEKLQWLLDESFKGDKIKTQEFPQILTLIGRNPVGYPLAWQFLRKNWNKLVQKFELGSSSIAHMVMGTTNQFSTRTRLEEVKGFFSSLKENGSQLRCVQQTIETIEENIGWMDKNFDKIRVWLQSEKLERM
Sequence of Cytochrome P450 3A4 (P08684 whole entry): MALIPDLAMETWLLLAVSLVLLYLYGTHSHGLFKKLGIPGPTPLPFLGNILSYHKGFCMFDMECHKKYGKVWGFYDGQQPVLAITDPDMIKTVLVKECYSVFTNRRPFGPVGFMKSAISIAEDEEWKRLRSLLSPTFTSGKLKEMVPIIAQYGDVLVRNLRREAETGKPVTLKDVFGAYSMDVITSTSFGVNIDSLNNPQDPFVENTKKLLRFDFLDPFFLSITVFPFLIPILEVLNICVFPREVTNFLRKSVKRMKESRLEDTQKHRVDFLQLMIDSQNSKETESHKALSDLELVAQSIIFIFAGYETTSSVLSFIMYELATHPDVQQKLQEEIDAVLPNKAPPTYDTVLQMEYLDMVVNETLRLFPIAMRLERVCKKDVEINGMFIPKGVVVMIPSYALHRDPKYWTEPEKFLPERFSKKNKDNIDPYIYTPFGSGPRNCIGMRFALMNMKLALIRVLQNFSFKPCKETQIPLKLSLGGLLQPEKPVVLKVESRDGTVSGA

In the case of `COc1cc(C(=S)N2CCOCC2)ccc1OC(=O)/C=C/c1ccco1`, the EC50 in assay [1] was > 100 µM (not active).
Take `O=c1ccc2cc(O)c(O)cc2o1` [ESCULETIN]: the half-maximal activity concentration (AC50) was 12.6 µM (inconclusive) on Cytochrome P450 3A4, 15.8 µM (inconclusive) at Cytochrome P450 1A2 and 9.72 µM (active) in assay [2]. In addition, the values for the IC50 (in [3]; at Large T antigen; in assay [4]) were > 50 µM (not active), 25.9 µM (active) and > 50 µM (not active), respectively.
With `CCOc1cc(/C=N/Nc2cccc(C(=O)O)c2)ccc1OC(=O)c1ccccc1`, the EC50 in the assay with Streptococcus was 17 µM (active); in assay [5] it was 3.53 µM (active); at Streptokinase A, > 150 µM (not active). In addition, the IC50 in assay [6] was 3.03 µM (active). Moreover, the AC50 in assay [7] was 1.38 µM (active).
Regarding `Cc1ccc(-c2nnc(SCC(=O)Nc3ccccc3F)o2)cc1`, the EC50 was 9.52 µM (active) in assay [8]; 10.2 µM (active) in the assay on BJ [9]; 6.59 µM (active) in the assay on BJ [11]; > 12 µM (inconclusive) in assay [12]; > 12 µM (inconclusive) in [13]; < 0.195 µM (active) in assay [14]. Further, the EC50 in the assay on HT-1080 was > 50 µM (not active); in assay [15] it was < 0.1 µM (active); in assay [16], 7.36 µM (inconclusive); in “cells”, 0.839 µM (active); with BJ [19] it was 21.7 µM (active); in assay [23] it was < 0.1 µM (active). The EC50 with BJ [24] was > 133 µM (inactive). In addition, the AC50 is 9.16 µM (active) in assay [10]; 33.7 µM (active) in the assay on A-375; 2.3 µM (active) in assay [7]; 14.7 µM (active) in [17]; 8.7 µM (active) in assay [18]; 7.12 µM (active) in assay [21]. The AC50 in assay [25] was 12.4 µM (active). Also, the IC50 is given as > 100 µM (not active) in [20] and 34.7 µM (not active) in assay [22].
